Here are results for 31 compounds from US8716297B2, “Chemical entities to be used for Wee1 inhibition for the treatment of cancer” (AbbVie Inc., priority 2011, dated 2014).

The assay addresses T1, GST-tagged-Wee1 kinase (Homo sapiens, UniProt P30291).
T1 construct: purchased Carnabio 05-177
Briefly: Wee1 time-resolved fluorescence equilibrium binding assay (displacement of Oregon Green-labeled ATP-competitive probe). The settings on record: TR-FRET probe displacement; 2 nM GST-Wee1, 300 nM probe, 1 hour incubation; read-out: Wee-1 binding (Ki nM). The procedure:
Wee1 kinase was assayed using a time-resolved fluorescence equilibrium binding assay monitoring displacement of a rapidly reversible Oregon Green-labeled ATP-competitive kinase probe (N-(2-(2-(2-(4-(4-(5-chloro-4-(2-(1-hydroxycyclobutyl)thiazol-5-yl)-1H-pyrrolo[2,3-b]pyridin-2-yl)phenyl)piperazin-1-yl)ethoxy)ethoxy)ethyl)-2′,7′-difluoro-3′,6′-dihydroxy-3-oxo-3H-spiro[isobenzofuran-1,9′-xanthene]-5-carboxamide) by competitive Wee1 inhibitors.

T1 sequence (P30291 whole entry): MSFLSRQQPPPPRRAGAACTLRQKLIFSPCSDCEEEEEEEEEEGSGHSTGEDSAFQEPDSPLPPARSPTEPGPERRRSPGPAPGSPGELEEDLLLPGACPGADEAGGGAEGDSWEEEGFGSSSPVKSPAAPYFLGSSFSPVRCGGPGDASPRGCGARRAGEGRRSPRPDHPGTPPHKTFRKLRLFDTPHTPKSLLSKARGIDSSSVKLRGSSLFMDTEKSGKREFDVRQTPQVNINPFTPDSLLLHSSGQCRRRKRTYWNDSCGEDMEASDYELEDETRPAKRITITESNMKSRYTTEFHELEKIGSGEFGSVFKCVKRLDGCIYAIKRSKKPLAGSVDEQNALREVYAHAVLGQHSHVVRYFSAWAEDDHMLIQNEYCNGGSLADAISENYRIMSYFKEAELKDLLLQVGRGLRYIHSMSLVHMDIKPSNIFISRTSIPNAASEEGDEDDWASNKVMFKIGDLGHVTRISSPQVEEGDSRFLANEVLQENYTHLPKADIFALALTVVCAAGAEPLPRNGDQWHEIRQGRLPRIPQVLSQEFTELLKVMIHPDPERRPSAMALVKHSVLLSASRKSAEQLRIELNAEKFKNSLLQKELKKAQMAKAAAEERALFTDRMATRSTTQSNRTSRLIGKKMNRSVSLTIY

For `CN1c2ccccc2-c2nc(Nc3ccc(N4CCOCC4)cc3)ncc2S1(=O)=O` [Example 57, 6-methyl-N-[4-(morpholin-4-yl)phenyl]-6H-pyrimido[5,4-c][2,1]benzothiazin-2-amine 5,5-dioxide], the Ki – broadly, the dissociation constant of the complex between target and ligand, obtained from inhibition or displacement – stood at 12 nM.

Consider `CCCN1c2cc(Br)ccc2-c2nc(Nc3ccc(N4CCN(C)CC4)cc3)ncc2S1(=O)=O` [Example 66, 8-bromo-N-[4-(4-methylpiperazin-1-yl)phenyl]-6-propyl-6H-pyrimido[5,4-c][2,1]benzothiazin-2-amine 5,5-dioxide], for which the inhibitory constant (Ki) is 6 nM.

As for `C=CCN1c2ncccc2-c2nc(Nc3ccc(N4CCN(C)CC4)cn3)ncc2S1(=O)=O` [Example 102, N-[5-(4-methylpiperazin-1-yl)pyridin-2-yl]-6-(prop-2-en-1-yl)-6H-pyrido[2,3-c]pyrimido[4,5-e][1,2]thiazin-2-amine 5,5-dioxide], the Ki was 210 nM.

For `C=CCN1c2ncccc2-c2nc(Nc3ccc4c(c3)NCCC4)ncc2S1(=O)=O` [Example 38, 6-allyl-N-(1,2,3,4-tetrahydroquinolin-7-yl)-6H-pyrido[2,3-c]pyrimido[4,5-e][1,2]thiazin-2-amine 5,5-dioxide], the Ki is 51 nM.

On to `COC(=O)c1ccc2c(c1)NS(=O)(=O)c1cnc(Nc3ccc(N4CCN(C)CC4)cc3)nc1-2` [Example 65, methyl 2-{[4-(4-methylpiperazin-1-yl)phenyl]amino}-6H-pyrimido[5,4-c][2,1]benzothiazine-8-carboxylate 5,5-dioxide], for which the inhibitory constant (Ki) came to 256 nM.

As to `C=CCN1c2ncccc2-c2nc(Nc3ccc(C4CCNC4)cc3)ncc2S1(=O)=O` (stereo not shown) [Example 45, 6-allyl-N-[4-(pyrrolidin-3-yl)phenyl]-6H-pyrido[2,3-c]pyrimido[4,5-e][1,2]thiazin-2-amine 5,5-dioxide], the Ki worked out at 3 nM.

`COC(=O)c1ccc2c(c1)N(c1cccc(C)c1)S(=O)(=O)c1cnc(Nc3ccc(N4CCN(C)CC4)cc3)nc1-2` [Example 89, methyl 6-(3-methylphenyl)-2-{[4-(4-methylpiperazin-1-yl)phenyl]amino}-6H-pyrimido[5,4-c][2,1]benzothiazine-8-carboxylate 5,5-dioxide]: the inhibition constant (Ki) stood at 63 nM.

In the case of `C=CCN1c2ncccc2-c2nc(Nc3ccc4c(c3)N(C)CCC4)ncc2S1(=O)=O` [Example 49, 6-allyl-N-(1-methyl-1,2,3,4-tetrahydroquinolin-7-yl)-6H-pyrido[2,3-c]pyrimido[4,5-e][1,2]thiazin-2-amine 5,5-dioxide], the inhibition constant (Ki) turned out to be 45 nM.

Consider `CCCN1c2ccccc2-c2nc(Nc3ccc(N4CCN(C)CC4)cc3)ncc2S1(=O)=O` [Example 67, N-[4-(4-methylpiperazin-1-yl)phenyl]-6-propyl-6H-pyrimido[5,4-c][2,1]benzothiazin-2-amine 5,5-dioxide], for which the inhibitory constant (Ki) stood at 4 nM.

For the compound `C=CCN1c2ccccc2-c2nc(Nc3ccc(-c4nc5ccccc5[nH]4)cc3)ncc2S1(=O)=O` [Example 20, 6-allyl-N-[4-(1H-benzimidazol-2-yl)phenyl]-6H-pyrimido[5,4-c][2,1]benzothiazin-2-amine 5,5-dioxide], the Ki came out at 283 nM.

In the case of `C=CCN1c2c(C(=O)NCCO)cccc2-c2nc(Nc3ccc(N4CCN(C)CC4)cc3)ncc2S1(=O)=O` [Example 62, 6-allyl-N-(2-hydroxyethyl)-2-{[4-(4-methylpiperazin-1-yl)phenyl]amino}-6H-pyrimido[5,4-c][2,1]benzothiazine-7-carboxamide 5,5-dioxide], the Ki is 37 nM.

As for `C=CCN1c2cc(Br)ccc2-c2nc(Nc3ccc(N4CCN(C)CC4)cc3)ncc2S1(=O)=O` [Example 64, 6-allyl-8-bromo-N-[4-(4-methylpiperazin-1-yl)phenyl]-6H-pyrimido[5,4-c][2,1]benzothiazin-2-amine 5,5-dioxide], the inhibitory constant (Ki) turned out to be 2 nM.

Turning to `C=CCN1c2ccccc2-c2nc(Nc3ccc4c(c3)NC(=O)CO4)ncc2S1(=O)=O` [Example 6, 6-[(6-allyl-5,5-dioxido-6H-pyrimido[5,4-c][2,1]benzothiazin-2-yl)amino]-2H-1,4-benzoxazin-3(4H)-one], the Ki came out at 47 nM.

As to `CN1c2ccccc2-c2nc(Nc3ccc(CN4CCCC4)cc3)ncc2S1(=O)=O` [Example 58, 6-methyl-N-[4-(pyrrolidin-1-ylmethyl)phenyl]-6H-pyrimido[5,4-c][2,1]benzothiazin-2-amine 5,5-dioxide], the Ki stood at 11 nM.

For `CCCN1c2ccc(-c3ccncc3)cc2-c2nc(Nc3ccc(N4CCN(C)CC4)cc3)ncc2S1(=O)=O` [Example 99, N-[4-(4-methylpiperazin-1-yl)phenyl]-6-propyl-9-(pyridin-4-yl)-6H-pyrimido[5,4-c][2,1]benzothiazin-2-amine 5,5-dioxide], the Ki is 3 nM.

Consider `CCCN1c2cc(-c3ccccc3)ccc2-c2nc(Nc3ccc(N4CCN(C)CC4)cc3)ncc2S1(=O)=O` [Example 68, N-[4-(4-methylpiperazin-1-yl)phenyl]-8-phenyl-6-propyl-6H-pyrimido[5,4-c][2,1]benzothiazin-2-amine 5,5-dioxide], for which the Ki is 92 nM.

As to `CN1CCN(c2ccc(Nc3ncc4c(n3)-c3ccccc3N(C)S4(=O)=O)cc2)CC1` [Example 56, 6-methyl-N-[4-(4-methylpiperazin-1-yl)phenyl]-6H-pyrimido[5,4-c][2,1]benzothiazin-2-amine 5,5-dioxide], the Ki turned out to be 9 nM.

Consider `C=CCN1c2ccccc2-c2nc(Nc3ccc4c(c3)CN(C)CC43CC3)ncc2S1(=O)=O` [Example 28, 6-allyl-N-(2′-methyl-2′,3′-dihydro-1′H-spiro[cyclopropane-1,4′-isoquinolin]-7′-yl)-6H-pyrimido[5,4-c][2,1]benzothiazin-2-amine 5,5-dioxide], for which the Ki came out at 1.1 nM.

In the case of `C=CCN1c2ncccc2-c2nc(Nc3ccc4c(c3)CNCC4)ncc2S1(=O)=O` [Example 33, 6-allyl-N-(1,2,3,4-tetrahydroisoquinolin-7-yl)-6H-pyrido[2,3-c]pyrimido[4,5-e][1,2]thiazin-2-amine 5,5-dioxide], the inhibitory constant (Ki) was 3 nM.

For the compound `C=CCN1c2ncccc2-c2nc(Nc3ccc4c(c3)CN(C)CC43CC3)ncc2S1(=O)=O` [Example 47, 6-allyl-N-(2′-methyl-2′,3′-dihydro-1′H-spiro[cyclopropane-1,4′-isoquinolin]-7′-yl)-6H-pyrido[2,3-c]pyrimido[4,5-e][1,2]thiazin-2-amine 5,5-dioxide], the Ki is 1.3 nM.

Take `C=CCN1c2ccccc2-c2nc(Nc3ccc4c(c3)CCCC4)ncc2S1(=O)=O` [Example 17, 6-allyl-N-(5,6,7,8-tetrahydronaphthalen-2-yl)-6H-pyrimido[5,4-c][2,1]benzothiazin-2-amine 5,5-dioxide]: the inhibition constant Ki came to 2040 nM.

`CCCN1c2cc(-c3ccc(O)cc3)ccc2-c2nc(Nc3ccc(N4CCN(C)CC4)cc3)ncc2S1(=O)=O` [Example 75, 4-(2-{[4-(4-methylpiperazin-1-yl)phenyl]amino}-5,5-dioxido-6-propyl-6H-pyrimido[5,4-c][2,1]benzothiazin-8-yl)phenol]: the inhibition constant Ki was found to be 14 nM.

With `C=CCN1c2ccccc2-c2nc(Nc3ccc(N4CCC(C)CC4)cc3)ncc2S1(=O)=O` [Example 9, 6-allyl-N-[4-(4-methylpiperidin-1-yl)phenyl]-6H-pyrimido[5,4-c][2,1]benzothiazin-2-amine 5,5-dioxide], the inhibition constant Ki worked out at 50 nM.

Take `C=CCN1c2c(C(=O)O)cccc2-c2nc(Nc3ccc(N4CCN(C)CC4)cc3)ncc2S1(=O)=O` [Example 59, 6-allyl-2-{[4-(4-methylpiperazin-1-yl)phenyl]amino}-6H-pyrimido[5,4-c][2,1]benzothiazine-7-carboxylic acid 5,5-dioxide]: the inhibition constant (Ki) was 141 nM.

For the compound `CCCN1c2cc(-n3cncn3)ccc2-c2nc(Nc3ccc(N4CCN(C)CC4)cc3)ncc2S1(=O)=O` [Example 94, N-[4-(4-methylpiperazin-1-yl)phenyl]-6-propyl-8-(1H-1,2,4-triazol-1-yl)-6H-pyrimido[5,4-c][2,1]benzothiazin-2-amine 5,5-dioxide], the inhibitory constant (Ki) is 7 nM.

On to `C=CCN1c2ncccc2-c2nc(Nc3ccc(OCCN(CC)CC)cc3)ncc2S1(=O)=O` [Example 39, 6-allyl-N-{4-[2-(diethylamino)ethoxy]phenyl}-6H-pyrido[2,3-c]pyrimido[4,5-e][1,2]thiazin-2-amine 5,5-dioxide], for which the Ki worked out at 15 nM.

As for `CCCN1c2ccc(-c3ccccc3)cc2-c2nc(Nc3ccc(N4CCN(C)CC4)cc3)ncc2S1(=O)=O` [Example 97, N-[4-(4-methylpiperazin-1-yl)phenyl]-9-phenyl-6-propyl-6H-pyrimido[5,4-c][2,1]benzothiazin-2-amine 5,5-dioxide], the inhibition constant Ki amounted to 6 nM.

In the case of `CCCN1c2cc(-c3cn[nH]c3)ccc2-c2nc(Nc3ccc(N4CCN(C)CC4)cc3)ncc2S1(=O)=O` [Example 70, N-[4-(4-methylpiperazin-1-yl)phenyl]-6-propyl-8-(1H-pyrazol-4-yl)-6H-pyrimido[5,4-c][2,1]benzothiazin-2-amine 5,5-dioxide], the inhibition constant (Ki) came to 5 nM.

On to `CCCN1c2cc(-c3ccncc3)ccc2-c2nc(Nc3ccc(N4CCN(C)CC4)cc3)ncc2S1(=O)=O` [Example 76, N-[4-(4-methylpiperazin-1-yl)phenyl]-6-propyl-8-(pyridin-4-yl)-6H-pyrimido[5,4-c][2,1]benzothiazin-2-amine 5,5-dioxide], for which the Ki turned out to be 5 nM.

As for `C=CCN1c2ncccc2-c2nc(Nc3ccc(N4CCN(C)CC4)c(C)c3)ncc2S1(=O)=O` [Example 50, 6-allyl-N-[3-methyl-4-(4-methylpiperazin-1-yl)phenyl]-6H-pyrido[2,3-c]pyrimido[4,5-e][1,2]thiazin-2-amine 5,5-dioxide], the Ki was determined as 5 nM.

As for `CCCN1c2cc(C(=O)N(C)C)ccc2-c2nc(Nc3ccc(N4CCN(C)CC4)cc3)ncc2S1(=O)=O` [Example 83, N,N-dimethyl-2-{[4-(4-methylpiperazin-1-yl)phenyl]amino}-6-propyl-6H-pyrimido[5,4-c][2,1]benzothiazine-8-carboxamide 5,5-dioxide], the Ki turned out to be 23 nM.
